Data set [1] in a line: Single-dose pharmacokinetic study, fasting vs high-fat meal. The conditions noted are these: human, in vivo, po, 80 mg, healthy volunteers.
Data set [2] is described as follows: Impurity B content of process samples on storage at room temperature (HPLC). Format: physicochemical. The conditions noted are these: 20 days (Laboratory placement). An excerpt: Impurity B (Impurity RRT1.5, i.e., relative retention time 1.5) is a degradation impurity identified in the stability studies of this formulation and is a specific impurity that requires close monitoring. […] Therefore, the study of Impurity B content is also a key point of the invention. The method for determining the content of Impurity B is as follows: [table] [table] • Heptafluorobutyric acid: Chromatographic grade Water: Ultrapure water Ammonia solution: Chromatographic grade or analytical grade • Acetonitrile: Chromatographic grade Methanol: Chromatographic grade • TY-9591 Reference Standard: In-house preparation or commercially purchased • 3. […]

The next data set can be described thus: pH-dependent solubility. Format: physicochemical. The conditions noted are these: result in words. An excerpt: (§1) Drugs can be absorbed at many different sites along the gastrointestinal tract (including the stomach, duodenum, jejunum, ileum, and colon) following oral administration. Due to the significant pH gradient between the stomach (pH 1 - 3.5) and the small intestine (pH 4 - 8), the pH varies at each absorption site. […] In such cases, where the solubility of a drug varies with pH-and specifically when solubility is highest at acidic pH levels-a problem arises: the drug may precipitate out of solution as it passes through the gastrointestinal tract, but the drug should remain in solution to be absorbed, such precipitation may affect the extent and rate of absorption.

A short description of a further data set: Permeability. Format: in vitro ADME. Conditions: result in words.
Source text: as §1

Setting [3] is: After high-fat meal, single oral dose of 80 mg of Tablet 22.
Where [4] appears, read: Fasting, single oral dose of 80 mg of Tablet 22.

Experimental findings from patent EP4803074A1, “PHARMACEUTICAL COMPOSITION OF PYRIMIDINE DERIVATIVE” (TYK Medicines, Inc., priority 2023, dated 2025) are described below.

Where two headings read alike, the source gives them in different places.

As to `[2H]C([2H])([2H])n1cc(-c2ccnc(Nc3cc(NC(=O)C=C)c(N(C)CCN(C)C)cc3OC)n2)c2ccccc21` [TY-9591, N-(2-((2-(dimethylamino)ethyl) (methyl)amine)-4-methoxy-5-((4-(1-deuteriatedmethyl-1H-indol-3-yl)pyrimidin-2-yl)amine)phenyl)acrylamide], the total exposure AUC(0-inf) (usually the area under the concentration-time curve extrapolated to infinity) in data set [1] (setting [3]) came out at 4350 ng·h/mL; in data set [1] (setting [4]), 3930 ng·h/mL. Besides, the Cmax – broadly, the maximum level reached in the sampled fluid or tissue – in data set [1] (setting [3]) was 69 ng/mL; in data set [1] (setting [4]) it was 67.8 ng/mL. Moreover, the Tmax (in general, the time at which the peak concentration occurs) in data set [1] (setting [3]) amounted to 5.95 h; in data set [1] (Fasting, single oral dose of 80 mg of Tablet 22 (40 mg*2 tablets)) it was 5.99 h. Besides, the half-life – broadly, the time needed for the level to fall by half in the phase considered – in data set [1] (setting [3]) is 48.6 h; in data set [1] (setting [4]), 51.2 h. Further, the AUC(0-t) in data set [1] (After high-fat meal, single oral dose of 80 mg of Tablet 22, read-out: AUC0-72h) worked out at 2670 ng·h/mL; in data set [1] (After high-fat meal, single oral dose of 80 mg of Tablet 22, read-out: AUC0-t) it was 4300 ng·h/mL; in data set [1] (Fasting, single oral dose of 80 mg of Tablet 22, read-out: AUC0-72h), 2330 ng·h/mL; in data set [1] (Fasting, single oral dose of 80 mg of Tablet 22, read-out: AUC0-t), 3880 ng·h/mL. Moreover, the “Impurity B/%” value in data set [2] was found to be 0.13%. Also, the “solubility at pH 1 (hydrochloric acid) compared to pH 6.8 (sodium hydroxide-sodium dihydrogen phosphate buffer, 25 mM)” value in the data set “pH-dependent solubility” was “higher solubility”. In “Permeability”, the permeability result is listed as “moderate permeability”.
